Target: T1, Complement C1s subcomponent (Homo sapiens, UniProt P09871)
T1 sequence (P09871 whole entry): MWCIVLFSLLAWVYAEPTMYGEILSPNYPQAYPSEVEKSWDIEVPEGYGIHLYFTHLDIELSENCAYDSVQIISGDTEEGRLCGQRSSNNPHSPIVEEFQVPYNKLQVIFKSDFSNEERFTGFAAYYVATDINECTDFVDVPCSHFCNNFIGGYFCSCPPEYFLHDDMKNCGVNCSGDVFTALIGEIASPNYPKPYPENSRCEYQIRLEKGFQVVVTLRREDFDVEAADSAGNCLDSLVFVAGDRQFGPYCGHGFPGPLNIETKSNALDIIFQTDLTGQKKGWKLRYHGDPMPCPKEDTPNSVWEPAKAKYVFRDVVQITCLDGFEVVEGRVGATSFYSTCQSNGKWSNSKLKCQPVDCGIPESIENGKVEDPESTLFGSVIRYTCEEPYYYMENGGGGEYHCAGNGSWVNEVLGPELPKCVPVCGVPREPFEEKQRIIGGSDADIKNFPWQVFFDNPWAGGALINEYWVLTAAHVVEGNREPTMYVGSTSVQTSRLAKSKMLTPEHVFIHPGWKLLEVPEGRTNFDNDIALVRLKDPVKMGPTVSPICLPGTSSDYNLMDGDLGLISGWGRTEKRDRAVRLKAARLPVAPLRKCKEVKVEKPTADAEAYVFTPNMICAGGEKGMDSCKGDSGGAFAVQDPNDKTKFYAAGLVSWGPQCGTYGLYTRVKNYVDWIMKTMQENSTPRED
Assay: Human C1s Enzyme Assay
Procedure: Human complement C1s enzyme (purified from human serum, Complement Technology, Inc.) at 1.16 nM final concentration was incubated with test compound at various concentrations for 5 min at room temperature in 50 mM Tris, 1 M NaCl, pH 7.5. A synthetic substrate Z-L-Lys-SBzl and DTNB (Ellman's reagent) were added to final concentrations of 100 μM each. Absorbance at 405 nm (A405) was recorded at 30 second intervals for 30 min using a microplate spectrophotometer. IC50 values were calculated by nonlinear regression of complement C1s reaction rates as a function of test compound concentration.

Row | SMILES | IC50
1 | N=C(N)c1cc(CNC(=O)[C@@H]2CC3(CN2C(=O)CNC(=O)c2ccc(-c4ccccc4)cn2)OCCO3)cs1 [US20250346585, Compound 144] | < 0.1 µM
2 | O=C(NCC(=O)N1CC2(C[C@H]1C(=O)NCc1cc(N3CCCC3=O)cs1)OCCO2)c1ccc(Oc2ccc(F)cc2)cc1 [US20250346585, Compound 290] | > 1 µM
3 | CC(=O)NCCNC[C@@]12C[C@@H]1N(C(=O)CNC(=O)c1ccc3c(c1)-c1ccccc1C3(F)F)[C@H](C(=O)N[C@H](C)c1cc(C(=N)N)cs1)C2 [US20250346585, Compound 315] | < 0.1 µM
4 | C[C@@H](NC(=O)[C@@H]1C[C@@H](S(C)(=O)=O)CN1C(=O)CNC(=O)c1ccc2sc3ccccc3c2c1)c1cc(C(=N)N)cs1 [US20250346585, Compound 332] | < 0.1 µM
5 | C[C@@H](NC(=O)[C@H]1C[C@]2(CC(F)(F)F)C[C@@H]2N1C(=O)CNC(=O)c1ccc2c(c1)-c1ccccc1C2(F)F)c1cc(C(=N)N)cs1 [US20250346585, Compound 410] | > 1 µM
6 | C[C@@H](NC(=O)[C@@H]1C[C@]2(CC(F)(F)F)C[C@@H]2N1C(=O)CNC(=O)c1ccc2c(c1)-c1ccccc1C2(F)F)c1cc(C(=N)N)cs1 [US20250346585, Compound 411] | > 1 µM

From BindingDB's records for patent US20250346585 (Alexion Pharmaceuticals, 2025)
